Values of other authors in US20020010164A1, “Low oxygen content compositions of 1alpha, 25-dihydroxycholecalciferol” (priority 1999, published 2002).

C=C1/C(=C\C=C2/CCCC3(C)C2CCC3C(C)CCCC(C)(C)O)CC(O)CC1O (stereo not drawn) [1α, 25-dihydroxycholecalciferol]
solubility in organic solvents (organic solvents): soluble
solubility in water (water): practically insoluble
